According to ChEMBL document CHEMBL4732123, “Discovery of 7-aminophenanthridin-6-one as a new scaffold for matrix metalloproteinase inhibitors with multitarget neuroprotective activity” (Eur J Med Chem, 2021):
The source made the active and inactive calls. No cut-off for these calls is given here.

Experiments:
[1] = target: T1, 72 kDa type IV collagenase (Homo sapiens, UniProt P08253); assay: Inhibition of recombinant human MMP2 (110 to 452 residues) using Mca-Pro-Leu-Gly-Leu-Dpa-Ala-Arg-NH2 expressed in yeast expression system as substrate incubated for 15 mins followed by substrate addition and measured after 2 to 4 hrs by fluorescence based assay
Target sequence in this assay (P08253 whole entry, the tested form may be a part): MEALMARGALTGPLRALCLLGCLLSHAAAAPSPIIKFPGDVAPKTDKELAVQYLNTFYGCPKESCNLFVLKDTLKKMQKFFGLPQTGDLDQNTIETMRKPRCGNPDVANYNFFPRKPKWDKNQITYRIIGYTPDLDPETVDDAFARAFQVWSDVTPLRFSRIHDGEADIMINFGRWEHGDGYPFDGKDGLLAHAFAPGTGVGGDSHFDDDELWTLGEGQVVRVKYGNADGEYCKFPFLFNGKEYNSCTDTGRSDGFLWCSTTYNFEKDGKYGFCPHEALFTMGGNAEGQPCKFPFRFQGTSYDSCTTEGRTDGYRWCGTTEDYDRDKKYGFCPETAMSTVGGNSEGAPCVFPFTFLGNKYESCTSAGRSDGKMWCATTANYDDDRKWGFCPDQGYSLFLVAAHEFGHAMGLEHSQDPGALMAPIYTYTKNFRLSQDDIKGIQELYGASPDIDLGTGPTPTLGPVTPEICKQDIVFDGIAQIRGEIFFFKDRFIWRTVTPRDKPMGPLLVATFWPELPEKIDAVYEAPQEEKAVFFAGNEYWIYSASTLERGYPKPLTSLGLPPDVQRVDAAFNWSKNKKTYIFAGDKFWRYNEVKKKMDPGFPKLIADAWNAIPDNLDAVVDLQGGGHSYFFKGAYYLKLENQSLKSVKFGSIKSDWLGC

[2] = target: T2, Neutrophil collagenase (Homo sapiens, UniProt P22894); assay: Inhibition of recombinant human MMP8 (99 to 269 residues) using Mca-Pro-Leu-Gly-Leu-Dpa-Ala-Arg-NH2 expressed in Escherichia coli expression system as substrate incubated for 15 mins followed by substrate addition and measured after 2 to 4 hrs by fluorescence based assay
Target sequence in this assay (P22894 whole entry, the tested form may be a part): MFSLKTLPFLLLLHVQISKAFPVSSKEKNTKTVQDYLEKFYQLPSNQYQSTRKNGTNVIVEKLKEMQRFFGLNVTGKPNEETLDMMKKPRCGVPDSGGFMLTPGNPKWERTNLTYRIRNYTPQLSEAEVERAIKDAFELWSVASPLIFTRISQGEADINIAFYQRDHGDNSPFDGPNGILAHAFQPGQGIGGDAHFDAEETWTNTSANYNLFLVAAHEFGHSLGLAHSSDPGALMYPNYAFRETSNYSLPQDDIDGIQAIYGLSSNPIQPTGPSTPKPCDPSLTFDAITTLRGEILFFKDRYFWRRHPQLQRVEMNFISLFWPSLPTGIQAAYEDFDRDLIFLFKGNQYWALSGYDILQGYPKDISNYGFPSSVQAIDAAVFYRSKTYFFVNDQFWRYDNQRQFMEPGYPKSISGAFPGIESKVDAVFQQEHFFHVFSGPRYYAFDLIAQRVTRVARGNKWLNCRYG

[3] = target: T3, Matrix metalloproteinase-9 (Homo sapiens, UniProt P14780); assay: Inhibition of recombinant human MMP9 (107 to 449 residues) using Mca-Pro-Leu-Gly-Leu-Dpa-Ala-Arg-NH2 expressed in Escherichia coli expression system as substrate incubated for 15 mins followed by substrate addition and measured after 2 to 4 hrs by fluorescence based assay
[4] = target: T4, Collagenase 3 (Homo sapiens, UniProt P45452); assay: Inhibition of recombinant human MMP13 (104 to 274 residues) using Mca-Pro-Leu-Gly-Leu-Dpa-Ala-Arg-NH2 expressed in Escherichia coli expression system as substrate incubated for 15 mins followed by substrate addition and measured after 2 to 4 hrs by fluorescence based assay
[5] = Cytotoxicity against mouse SN-56 cells assessed as reduction in cell viability upto 100 uM incubated for 24 hrs by MTT assay; assay type: cell-based; conditions: sn-56, 24 h
[6] = test system: SN-56; assay: Neuroprotective activity against H2O2-induced lipid peroxidation in mouse SN-56 cells assessed as increase in MDA level incubated for 24 hrs by lipid peroxidation MDA assay kit method; assay type: functional, cell-based
[7] = Neuroprotective activity against H2O2-induced lipid peroxidation in mouse SN-56 cells assessed as increase in MDA level at 1 to 150 uM incubated for 24 hrs by lipid peroxidation MDA assay kit method relative to control; assay type: functional; conditions: dose 1-150 µM
[8] = test system: SN-56; assay: Neuroprotective activity against H2O2-induced cytotoxicity in mouse SN-56 cells assessed as increase in cell viability at 10 to 100 uM incubated for 24 hrs by MTT assay; assay type: functional, cell-based; conditions: dose 10-100 µM
[9] = target: T4, Collagenase 3; assay: Non-competitive inhibition of recombinant human MMP13 (104 to 274 residues) using Mca-Pro-Leu-Gly-Leu-Dpa-Ala-Arg-NH2 expressed in Escherichia coli expression system as substrate at 100 uM incubated for 15 mins followed by substrate addition and measured after 2 to 4 hrs by fluorescence based assay relative to control; conditions: time 2-4.25 hrs
[10] = target: T1, 72 kDa type IV collagenase; assay: Non-competitive inhibition of recombinant human MMP2 (110 to 452 residues) using Mca-Pro-Leu-Gly-Leu-Dpa-Ala-Arg-NH2 expressed in yeast expression system as substrate incubated for 15 mins followed by substrate addition and measured after 2 to 4 hrs by fluorescence based assay; conditions: time 2-4.25 hrs
Target sequence in this assay (P08253 110-660 limits assumed): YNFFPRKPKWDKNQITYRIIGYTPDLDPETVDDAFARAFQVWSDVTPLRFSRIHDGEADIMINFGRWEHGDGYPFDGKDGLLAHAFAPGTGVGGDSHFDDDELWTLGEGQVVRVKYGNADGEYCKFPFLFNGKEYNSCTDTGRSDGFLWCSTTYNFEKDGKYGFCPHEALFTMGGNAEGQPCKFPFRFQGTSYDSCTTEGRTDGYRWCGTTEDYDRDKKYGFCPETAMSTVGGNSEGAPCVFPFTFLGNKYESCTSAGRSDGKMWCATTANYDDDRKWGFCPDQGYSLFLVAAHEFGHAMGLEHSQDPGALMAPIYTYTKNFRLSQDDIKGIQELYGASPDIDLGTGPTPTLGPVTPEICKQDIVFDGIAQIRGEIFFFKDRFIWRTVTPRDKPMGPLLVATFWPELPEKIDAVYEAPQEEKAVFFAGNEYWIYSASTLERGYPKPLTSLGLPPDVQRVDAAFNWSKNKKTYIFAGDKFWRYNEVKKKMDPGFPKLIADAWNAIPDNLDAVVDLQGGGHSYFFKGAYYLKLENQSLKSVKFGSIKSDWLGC

[11] = target: T2, Neutrophil collagenase; assay: Non-competitive inhibition of recombinant human MMP8 (99 to 269 residues) using Mca-Pro-Leu-Gly-Leu-Dpa-Ala-Arg-NH2 expressed in Escherichia coli expression system as substrate incubated for 15 mins followed by substrate addition and measured after 2 to 4 hrs by fluorescence based assay; conditions: time 2-4.25 hrs
Target sequence in this assay (P22894 101-467 limits assumed): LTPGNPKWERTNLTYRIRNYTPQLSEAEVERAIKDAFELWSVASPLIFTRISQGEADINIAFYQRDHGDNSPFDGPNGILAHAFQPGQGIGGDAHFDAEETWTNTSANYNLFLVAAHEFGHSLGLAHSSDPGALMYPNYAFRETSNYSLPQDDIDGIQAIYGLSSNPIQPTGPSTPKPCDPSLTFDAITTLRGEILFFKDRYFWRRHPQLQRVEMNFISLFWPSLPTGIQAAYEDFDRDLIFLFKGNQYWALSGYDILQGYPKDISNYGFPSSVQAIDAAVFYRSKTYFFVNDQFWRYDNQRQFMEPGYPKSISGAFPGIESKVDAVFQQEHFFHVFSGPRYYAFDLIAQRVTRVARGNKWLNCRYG

[12] = target: T3, Matrix metalloproteinase-9; assay: Non-competitive inhibition of recombinant human MMP9 (107 to 449 residues) using Mca-Pro-Leu-Gly-Leu-Dpa-Ala-Arg-NH2 expressed in Escherichia coli expression system as substrate incubated for 15 mins followed by substrate addition and measured after 2 to 4 hrs by fluorescence based assay; conditions: time 2-4.25 hrs
[13] = target: T4, Collagenase 3; assay: Non-competitive inhibition of recombinant human MMP13 (104 to 274 residues) using Mca-Pro-Leu-Gly-Leu-Dpa-Ala-Arg-NH2 expressed in Escherichia coli expression system as substrate incubated for 15 mins followed by substrate addition and measured after 2 to 4 hrs by fluorescence based assay; conditions: time 2-4.25 hrs
[14] = target: T1, 72 kDa type IV collagenase; assay: Non-competitive inhibition of recombinant human MMP2 (110 to 452 residues) using Mca-Pro-Leu-Gly-Leu-Dpa-Ala-Arg-NH2 expressed in yeast expression system as substrate by fluorescence based Michaelis-Menten analysis; conditions: time 2-4 hrs
Target sequence in this assay (P08253 110-660 limits assumed): as the sequence (P08253 110-660 limits assumed) above

[15] = target: T2, Neutrophil collagenase; assay: Non-competitive inhibition of recombinant human MMP8 (99 to 269 residues) using Mca-Pro-Leu-Gly-Leu-Dpa-Ala-Arg-NH2 expressed in Escherichia coli expression system as substrate by substrate by fluorescence based Michaelis-Menten analysis; conditions: time 2-4 hrs
Target sequence in this assay (P22894 101-467 limits assumed): as the sequence (P22894 101-467 limits assumed) above

[16] = target: T3, Matrix metalloproteinase-9; assay: Non-competitive inhibition of recombinant human MMP9 (107 to 449 residues) using Mca-Pro-Leu-Gly-Leu-Dpa-Ala-Arg-NH2 expressed in Escherichia coli expression system as substrate by substrate by fluorescence based Michaelis-Menten analysis; conditions: time 2-4 hrs
[17] = target: T4, Collagenase 3; assay: Non-competitive inhibition of recombinant human MMP13 (104 to 274 residues) using Mca-Pro-Leu-Gly-Leu-Dpa-Ala-Arg-NH2 expressed in Escherichia coli expression system as substrate by fluorescence based Michaelis-Menten analysis assay; conditions: time 2-4 hrs
[18] = target: T1, 72 kDa type IV collagenase; assay: Non-competitive inhibition of recombinant human MMP2 (110 to 452 residues) using Mca-Pro-Leu-Gly-Leu-Dpa-Ala-Arg-NH2 expressed in yeast expression system as substrate by fluorescence based Lineweaver-Burk plot; conditions: time 2-4 hrs
Target sequence in this assay (P08253 110-660 limits assumed): as the sequence (P08253 110-660 limits assumed) above

[19] = target: T2, Neutrophil collagenase; assay: Non-competitive inhibition of recombinant human MMP8 (99 to 269 residues) using Mca-Pro-Leu-Gly-Leu-Dpa-Ala-Arg-NH2 expressed in Escherichia coli expression system as substrate by substrate by fluorescence based Lineweaver-Burk plot; conditions: time 2-4 hrs
Target sequence in this assay (P22894 101-467 limits assumed): as the sequence (P22894 101-467 limits assumed) above

[20] = target: T3, Matrix metalloproteinase-9; assay: Non-competitive inhibition of recombinant human MMP9 (107 to 449 residues) using Mca-Pro-Leu-Gly-Leu-Dpa-Ala-Arg-NH2 expressed in Escherichia coli expression system as substrate by substrate by fluorescence based Lineweaver-Burk plot; conditions: time 2-4 hrs
[21] = target: T4, Collagenase 3; assay: Non-competitive inhibition of recombinant human MMP13 (104 to 274 residues) using Mca-Pro-Leu-Gly-Leu-Dpa-Ala-Arg-NH2 expressed in Escherichia coli expression system as substrate by fluorescence based Lineweaver-Burk plot assay; conditions: time 2-4 hrs
[22] = target: T1, 72 kDa type IV collagenase; assay: Non-competitive inhibition of recombinant human MMP2 (110 to 452 residues) using Mca-Pro-Leu-Gly-Leu-Dpa-Ala-Arg-NH2 expressed in yeast expression system as substrate by fluorescence based Dixon plot; conditions: time 2-4 hrs
Target sequence in this assay (P08253 110-660 limits assumed): as the sequence (P08253 110-660 limits assumed) above

[23] = target: T2, Neutrophil collagenase; assay: Non-competitive inhibition of recombinant human MMP8 (99 to 269 residues) using Mca-Pro-Leu-Gly-Leu-Dpa-Ala-Arg-NH2 expressed in Escherichia coli expression system as substrate by substrate by fluorescence based Dixon plot; conditions: time 2-4 hrs
Target sequence in this assay (P22894 101-467 limits assumed): as the sequence (P22894 101-467 limits assumed) above

[24] = target: T3, Matrix metalloproteinase-9; assay: Non-competitive inhibition of recombinant human MMP9 (107 to 449 residues) using Mca-Pro-Leu-Gly-Leu-Dpa-Ala-Arg-NH2 expressed in Escherichia coli expression system as substrate by substrate by fluorescence based Dixon plot; conditions: time 2-4 hrs
[25] = target: T4, Collagenase 3; assay: Non-competitive inhibition of recombinant human MMP13 (104 to 274 residues) using Mca-Pro-Leu-Gly-Leu-Dpa-Ala-Arg-NH2 expressed in Escherichia coli expression system as substrate by fluorescence based Dixon plot assay; conditions: time 2-4 hrs
[26] = test system: SN-56; assay: Neuroprotective activity against H2O2-induced lipid peroxidation in mouse SN-56 cells assessed as increase in MDA level at 100 uM incubated for 24 hrs by lipid peroxidation MDA assay kit method; assay type: functional, cell-based

T3 sequence (P14780 whole entry, the tested form may be a part): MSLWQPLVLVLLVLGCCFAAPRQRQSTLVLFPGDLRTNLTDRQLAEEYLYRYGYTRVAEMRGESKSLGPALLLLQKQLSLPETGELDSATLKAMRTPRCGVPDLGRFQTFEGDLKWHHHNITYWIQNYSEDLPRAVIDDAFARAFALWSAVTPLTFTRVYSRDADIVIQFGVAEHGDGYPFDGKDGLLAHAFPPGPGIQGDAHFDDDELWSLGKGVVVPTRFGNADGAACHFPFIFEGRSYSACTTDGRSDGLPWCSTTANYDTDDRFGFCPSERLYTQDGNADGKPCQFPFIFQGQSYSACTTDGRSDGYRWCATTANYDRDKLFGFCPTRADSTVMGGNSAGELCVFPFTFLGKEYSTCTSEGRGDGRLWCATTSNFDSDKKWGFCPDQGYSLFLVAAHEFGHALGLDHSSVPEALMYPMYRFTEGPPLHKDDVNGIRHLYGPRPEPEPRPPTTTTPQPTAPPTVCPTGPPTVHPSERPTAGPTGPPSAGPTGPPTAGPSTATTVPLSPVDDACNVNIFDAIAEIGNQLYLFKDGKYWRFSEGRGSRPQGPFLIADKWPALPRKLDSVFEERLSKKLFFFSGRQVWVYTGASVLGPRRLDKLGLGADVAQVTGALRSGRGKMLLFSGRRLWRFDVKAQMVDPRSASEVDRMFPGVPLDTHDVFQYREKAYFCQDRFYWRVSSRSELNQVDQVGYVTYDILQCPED

Structure (SMILES)	IC50 [1]	IC50 [2]	IC50 [3]	IC50 [4]	Activity [5]	Activity [6]	Activity [7]	Activity [8]	other results
COc1ccc(Nc2cc(-c3ccccc3)cc3c2c(=O)[nH]c2ccccc23)cc1	60 µM	> 100 µM	22 µM	16.4 µM	Non-Toxic	Dose-dependent effect	100%	Active	
COc1ccc(Nc2cc(-c3ccccc3)cc3c2c(=O)[nH]c2c(OC)c(OC)ccc23)cc1	42 µM	68 µM	20.5 µM	37 µM	Non-Toxic				
CCCCNc1cc(-c2cccs2)cc2c1c(=O)[nH]c1ccccc12	38 µM	> 100 µM	> 100 µM		Non-Toxic	Dose-dependent effect			inhibition [9]: 54%
Nc1cc(-c2ccccc2)cc2c1c(=O)[nH]c1ccccc12	> 100 µM	> 100 µM	> 100 µM	> 100 µM	Non-Toxic				
O=c1[nH]c2ccccc2c2cc(-c3cccs3)cc(Nc3ccccc3)c12	6.1 µM	18 µM	16.1 µM	15.6 µM	Non-Toxic	Dose-dependent effect	100%	Active	
Nc1ccc(-c2cc(Nc3ccccc3)c3c(=O)[nH]c4ccccc4c3c2)cc1	32 µM	47 µM	28 µM	73 µM	Non-Toxic	Dose-dependent effect	100%	Active	
Cc1cc(C)cc(Nc2cc(-c3ccco3)cc3c2c(=O)[nH]c2ccccc23)c1	21.6 µM	60 µM	86 µM	46 µM	Non-Toxic				
COc1ccc(Nc2cc(-c3cccs3)cc3c2c(=O)[nH]c2ccccc23)cc1	6.05 µM	7 µM	5 µM	5.4 µM	Non-Toxic	Dose-dependent effect	100%	Active	inhibition [10]: Active; inhibition [11]: Active; inhibition [12]: Active; inhibition [13]: Active; Activity [14]: Active; Activity [15]: Active; Activity [16]: Active; Activity [17]: Active; Activity [18]: Active; Activity [19]: Active; Activity [20]: Active; Activity [21]: Active; Activity [22]: Active; Activity [23]: Active; Activity [24]: Active; Activity [25]: Active
Cc1c(C)c2c(c(C)c1O)CCC(C)(C(=O)O)O2 (configuration not stated)									Activity [26]: Active
O=c1[nH]c2ccccc2c2cc(-c3ccccc3)cc(Nc3ccc(F)cc3)c12	98 µM	> 100 µM	99 µM	99 µM	Non-Toxic	Dose-dependent effect			
COc1ccc(-c2cc(Nc3ccccc3)c3c(=O)[nH]c4ccccc4c3c2)cc1	47 µM	54 µM	32 µM	40 µM	Non-Toxic	Dose-dependent effect			
